Here are results for eight compounds from PubChem BioAssay (NCI).

Assay in all cases: NCI-60 cell line screen, 48 h
In assay [1] the test system is CCRF-CEM leukemia.
The subject of assay [2] is SR leukemia.
In assay [3] the test system is A498 renal.
Assay [4] relates to NCI-H23 lung.
The subject of assay [5] is HOP-62 NSCLC.
In assay [6] the test system is HCT-116 colon.
The subject of assay [7] is SK-OV-3 ovarian.
The subject of assay [8] is OVCAR-3 ovarian.
Assay [9] concerns HOP-92 NSCLC.
For assay [10], the system named is MOLT-4 leukemia.

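1) Cells in 96-well plates. 2) Compound, 48 h, 5 concentrations. 3) Linear interpolation between surrounding doses. 4) Unreached endpoint = highest concentration. GI50 = concentration required for 50% inhibition of growth. TGI denotes the concentration required for complete inhibition of growth.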 Bounds are passed on as bounds.

On to `CCN1CCC(CCOC)(CN2c3ccccc3Sc3ccc(Cl)cc32)C1` (configuration not stated), for which the GI50 in [1] is 3.57 µM; in [2], 4.01 µM; in assay [3] it was 1.95 µM; in [4], 2.2 µM; in assay [5], 1.67 µM; in [6], 1.86 µM. The GI50 was 1.91 µM in assay [7] and 1.88 µM in [8]. Further, the TGI in assay [1] was > 100 µM; in [2], > 100 µM; in assay [3], 7.39 µM; in [4] it was 6.16 µM; in assay [5], 3.13 µM; in [6], 3.32 µM. Moreover, the TGI in assay [7] turned out to be 3.88 µM; in assay [8] it was 4.1 µM.
On to `O=[N+]([O-])c1cccc(-c2nc3sccn3c2-c2ccnc(NCCCNS(=O)(=O)c3cccc(F)c3)n2)c1`, for which the GI50 in assay [1] was 1.3 µM; in assay [2], 3.1 µM; in assay [3], 1.56 µM; in assay [4] it was 1.98 µM; in assay [9] it was 2.8 µM; in [5] it was 3.5 µM. For the same compound, the figures for the GI50 in [6], in assay [7] and in [8] were 2.74 µM, 5.82 µM and 2.53 µM, respectively. In addition, the TGI is > 100 µM in assay [1]; > 100 µM in assay [2]; 30.5 µM in assay [3]; 7.34 µM in [4]; 30.3 µM in assay [9]; 14.1 µM in assay [5]. The values for the TGI in assay [6], in [7] and in assay [8] were > 100 µM, 30.5 µM and 11.9 µM, respectively.
With `O=C(/C(=C/c1ccc([N+](=O)[O-])cc1)c1ccccc1)c1ccccc1`, the GI50 in assay [1] is 2.25 µM; in [2] it was 2.79 µM; in assay [3], 1.98 µM; in assay [9] it was 2.22 µM; in assay [5] it was 2.78 µM; in [7], 4.19 µM. Further, in [8], the GI50 is 2.36 µM. Moreover, the TGI in assay [1] was > 100 µM; in assay [2], > 100 µM; in assay [3] it was 8.86 µM; in assay [9], 6.98 µM; in [5] it was 6.12 µM; in [7] it was > 100 µM. Besides, the TGI in assay [8] amounted to 5.64 µM.
Turning to `C/C(=N\Nc1ccc2ccccc2n1)c1ccccn1`, the TGI came to 0.0284 µM in assay [1]; 2.38 µM in [2]; 2.48 µM in [3]; 13.6 µM in assay [4]; 11 µM in assay [5]; 3.03 µM in assay [6]. Further, the results for the TGI in [10], in [7] and in assay [8] were 0.404 µM, 13.6 µM and 4.24 µM, respectively. For the same compound, the GI50 is < 0.0335 µM in assay [2]; 0.239 µM in assay [3]; 0.156 µM in assay [4]; 0.09 µM in [5]; < 0.0472 µM in [6]; < 0.0394 µM in assay [10]. For the same compound, the GI50 in assay [7] is 0.132 µM; in assay [8], < 0.0192 µM.
In the case of `O=C(O)C/C=C/CC(=O)O`, the TGI in assay [1], in [2], in [3], in assay [4], in assay [5] and in assay [6] was > 100 µM each time. The TGI in assay [10], in assay [7] and in [8] was > 100 µM in each case.
Take `Cc1ccc(-c2cc(-c3ccc(C)cc3)nc(NCCNc3ccnc4cc(Cl)ccc34)n2)cc1`: the GI50 in assay [2] is 0.623 µM; in assay [3], 1.89 µM; in [4] it was 1.91 µM; in assay [9], 1.23 µM; in assay [5], 1.89 µM; in assay [6], 1.6 µM. The GI50 in assay [7] is 1.75 µM; in assay [8] it was 1.66 µM. Also, the TGI in assay [2] is > 100 µM; in assay [3] it was 3.46 µM; in assay [4], 3.85 µM; in assay [9], 2.73 µM; in [5], 3.8 µM; in [6] it was 3.44 µM. Moreover, the TGI in assay [7] worked out at 3.34 µM; in [8], 3.15 µM.
`O=C(C1CCCCC1)[C@@H]1[C@]2(C(=O)NC3CCCCC32)[C@@H]2CCCN2[C@@]12C(=O)NC1CCC(Cl)CC12` (some centres not stated): the GI50 was 32.3 µM in assay [1]; 30.8 µM in assay [2]; 130 µM in assay [3]; 119 µM in assay [4]; 123 µM in [5]; 71.6 µM in assay [6]. The figures for the GI50 in assay [10], in assay [7] and in assay [8] were 32.2 µM, 145 µM and 78.2 µM, respectively. The TGI is 137 µM in assay [1]; 124 µM in assay [2]; 265 µM in [3]; 274 µM in assay [4]; 287 µM in [5]; 208 µM in assay [6]. Moreover, the TGI in assay [10] is 213 µM; in [7] it was 284 µM; in [8], 210 µM.
Consider `COc1ccc(C(OCC2OC(n3ccc(NC(=O)c4ccccc4)nc3=O)C(O)C2O)(c2ccccc2)c2ccccc2)cc1` (configuration not stated), for which the TGI was 4.39 µM in [1]; 4.96 µM in assay [2]; 2.97 µM in assay [3]; 3 µM in assay [4]; 4 µM in assay [5]; 3.23 µM in [6]. The TGI was 4.17 µM in assay [10], 20.6 µM in assay [7] and 3.15 µM in assay [8].
